Experimental data published in patent publication US20200165312A1, “COSMETIC COMPOSITION FOR IMPROVING SKIN CONDITIONS COMPRISING FUSION PROTEIN INCLUDING SKIN PENETRATION ENHANCING PEPTIDE” (LG HOUSEHOLD & HEALTH CARE LTD., priority 2017, published 2020).

Experiments:
dermal papilla cells = assay: Hair follicle stem cell proliferation: dermal papilla cells, Cell Counter Kit-8; assay type: cell-based; details: for Proliferation (%): control = 100
Procedure: (§1) Specifically, dermal papilla cells were inoculated onto a 96-well plate and cultured for 24 hours to obtain cultures at a density of 6,000 cells per well. The cultures were washed with PBS and cultured in a serum-free DMEM medium for one day. The cells were washed with PBS again and cultured in a serum-free DMEM medium supplemented with 1 ng/mL T-PDGFa or PDGFa for one day. The cultures were obtained therefrom and a difference between proliferated amounts of cells was quantitively analyzed using the Cell Counter Kit-8 (Dojindo). Here, dermal papilla cells cultured in a serum-free DMEM medium without T-PDGFa or PDGFa were used as a control (Table 6).
Specifically, dermal papilla cells were inoculated onto a 96-well plate and cultured for 24 hours to obtain cultures at a density of 6,000 cells per well. The cultures were washed with PBS and cultured in a serum-free DMEM medium for one day. […] The cultures were obtained therefrom and a difference between proliferated amounts of cells was quantitively analyzed using the Cell Counter Kit-8 (Dojindo).
as §1, with “T-IGF-1” for “T-PDGFa”, “IGF-1” for “PDGFa”, “15).” for “6).”
as §1, with “10” for “1”, “T-KGF” for “T-PDGFa”, “KGF” for “PDGFa”, “19).” for “6).”
as §1, with “10” for “1”, “T-Tβ4” for “T-PDGFa”, “Tβ4” for “PDGFa”, “23).” for “6).”

[1] = Skin retentivity of growth factor fusion proteins (porcine skin disrupted, ELISA); assay type: in vitro ADME; details: for Remaining amount (%): skin after 16 hours penetration test
Procedure: (§2) Specifically, the porcine skin remained after the experiment of Example 3-2-4 was recovered, frozen in liquid nitrogen, and disrupted. An amount of PDGFa or T-PDGFa contained therein was quantitatively analyzed using the ELISA kit (R&D Systems). In addition, a relative amount of T-PDGFa to PDGFa was calculated as a remaining amount (Table 8).
Specifically, the porcine skin remained after the experiment of Example 3-3-4 was recovered, frozen in liquid nitrogen, and disrupted. An amount of VEGF or T-VEGF contained therein was quantitatively analyzed using the ELISA kit (R&D Systems).
as §2, with “3-4-4” for “3-2-4”, “IGF-1” for “PDGFa”, “T-IGF-1” for “T-PDGFa”, “17).” for “8).”
as §2, with “3-5-3” for “3-2-4”, “KGF” for “PDGFa”, “T-KGF” for “T-PDGFa”, “21).” for “8).”
as §2, with “3-6-3” for “3-2-4”, “Tβ4” for “PDGFa”, “T-Tβ4” for “T-PDGFa”, “25).” for “8).”

Substance: IGF-1: insulin-like growth factor-1 having an amino acid sequence of SEQ ID NO: 41
- Proliferation (%) (dermal papilla cells; 1 ng/mL T-IGF-1 or IGF-1, one day): 440 ± 45%
- Remaining amount (%) ([1]; relative to IGF-1): 100 ± 28%

Substance: PDGFa: platelet-derived growth factor subunit a having an amino acid sequence of SEQ ID NO: 35
- Proliferation (%) (dermal papilla cells; 1 ng/mL T-PDGFa or PDGFa, one day): 1030 ± 19%
- Remaining amount (%) ([1]; relative to PDGFa): 100 ± 20%

Substance: T-Tβ4: SEQ ID NO: 1 peptide C-terminal linked to N-terminal of Tβ4 via GG linker (NGSLNTHLAPILGGSDKPDMAEIEKFDKSKLKKTETQEKNPLPSKETIEQEKQAGES; Synthetic Fusion protein of T-T beta 4)
- Proliferation (%) (dermal papilla cells; 10 ng/mL T-Tβ4 or Tβ4, one day): 220 ± 16%
- cell proliferation effect compared with the unfused protein (dermal papilla cells; dermal papilla cells): same level
- Remaining amount (%) ([1]; relative to Tβ4): 9,600 ± 450%
- skin retentivity higher than the unfused protein ([1]; summary of Tables 8, 13, 17, 21, 25): about 100 times

Substance: Tβ4: thymosin beta 4 having an amino acid sequence of SEQ ID NO: 47
- Proliferation (%) (dermal papilla cells; 10 ng/mL T-Tβ4 or Tβ4, one day): 260 ± 20%
- Remaining amount (%) ([1]; relative to Tβ4): 100 ± 17%
